# Test results: patent US8017315B2, “Mitochondrial localization of MUC1” (Dana Farber Cancer Institute, Inc., priority 2005, dated 2011)
# Ends that are not written are not given here.
# Legend:
# [1] = system: binding of MUC1 and HSP90; assay: MUC1-HSP90 co-immunoprecipitation and immunoblot in cells; format: cell-based, Human
# Method: Cell culture. […] Human ZR-75-1 breast cancer cells were cultured in RPMI1640 medium containing 10% HI-FBS, antibiotics and L-glutamine. Cells were grown to 60% confluence and then maintained overnight in medium with 0.1% serum before treatment with heregulin (HRG; 20 ng/ml; Calbiochem-Novabiochem, LaJolla, Calif.).
# Immunoprecipitation and immunoblotting. […] Lysates not subjected to immunoprecipitation were immunoblotted with anti-MUC1-C, anti-HSP60 (Stressgen Biotechnologies, Victoria, BC, Canada), anti-PDGFR (Santa Cruz Biotechnology), anti-BAP31 (Abcam, Cambridge, Mass.), anti-PCNA (Calbiochem-Novabiochem), anti-IkBa (Santa Cruz Biotechnology), anti-calreticulin (Stressgen Biotechnologies), anti-Tom20 (BD Biosciences), anti-Tim23 (BD Biosciences), anti-Tim44 (BD Biosciences) or anti-β-actin (Sigma-Aldrich). Reactivity was detected with horseradish peroxidase-conjugated secondary antibodies and chemiluminescence (PerkinElmer Life Sciences, Boston, Mass.). Intensity of the signals was determined by densitometric scanning. Statistical significance was determined by the Student's t-test.
# Subcellular fractionation. […] SM buffer ([…]) was added to one aliquot, and hypotonic buffer (10 mM MOPS-KOH, pH 7.2; […]) was added to the other aliquot. The samples were incubated for 15 minutes on ice and then left untreated or digested with […] trypsin (Sigma-Aldrich) for 15 minutes at 4° C. In other experiments, purified mitochondria in suspension buffer (5 mM HEPES, pH 7.4, 210 mM mannitol, 70 mM sucrose, 100 mM KCl, and 1 mM EGTA) were treated with 0.5% or 1% digitonin (Sigma-Aldrich) for 15 minutes at 4° C. Alternatively, the mitochondria were incubated with 0.5% digitonin for 1 minute at 4° C., diluted with suspension buffer, and then treated with […] trypsin for 15 minutes at 4° C.
# c-Src = c-Src (Homo sapiens, UniProt P12931); assay: c-Src activation (autophosphorylation), anti-c-Src immunoprecipitation and immunoblot; format: cell-based; details: HCT116/MUC1 cells
# Method: (§1) Cell culture. Human HCT116/vector, HCT116/MUC1, HCT116/MUC1(Y46F) (Ren et al. (2004) Cancer Cell 5:163-175) and HCT116/MUC1-CD (Huang et al. (2003) Cancer Biol. Ther. 2:702-706) cells were cultured in Dulbecco's Modified Eagle Medium/F12 with 10% heat-inactivated fetal bovine serum (HI-FBS), 100 units/ml penicillin, […], and 2 mM L-glutamine. Human HeLa cervical carcinoma, 293 embryonic kidney and MCF-7 breast cancer cells were grown in Dulbecco's Modified Eagle Medium containing 10% HI-FBS, antibiotics and L-glutamine. Human ZR-75-1 breast cancer cells were cultured in RPMI1640 medium containing 10% HI-FBS, antibiotics and L-glutamine. Cells were grown to 60% confluence and then maintained overnight in medium with 0.1% serum before treatment with heregulin (HRG; 20 ng/ml; Calbiochem-Novabiochem, LaJolla, Calif.).
# (§2) Immunoprecipitation and immunoblotting. […] Reactivity was detected with horseradish peroxidase-conjugated secondary antibodies and chemiluminescence (PerkinElmer Life Sciences, Boston, Mass.). Intensity of the signals was determined by densitometric scanning. Statistical significance was determined by the Student's t-test.
# [2] = system: localization of MUC1-C to mitochondria; assay: Immunoblot of purified mitochondria for MUC1 targeting; format: cell-based, Human; details: HCT116/MUC1 cells
# Method: as §1
# as §2, with “t-test. […]” for “t-test.”
# [3] = system: purified recombinant human HSP90; assay: GST pull-down binding study with recombinant HSP90; details: for binding to HSP90 after incubation with c-Src and ATP: GST fusion proteins incubated with c-Src and ATP 20 minutes at 30° C., then HSP90 1 hour at 4° C.
# Method: (§3) Binding Studies. Sequences encoding MUC1-CD, MUC1-CD(1-45), or MUC1-CD(46-72) were amplified by PCR and cloned into the pGEX-4T vector (Amersham Biosciences, Piscataway, N.J.). Purified GST-MUC1-CD fusion proteins bound to glutathione beads were incubated with purified recombinant human HSP70 or HSP90 (Stressgen Biotechnologies) for 1 hour at 4° C. In other experiments, the purified GST fusion proteins bound to glutathione beads were incubated with or without 50 ng c-Src (Upstate Biotechnology) in the presence of […] for 20 minutes at 30° C. HSP90 was then added for 1 hour at 4° C. Precipitated proteins were subjected to immunoblot analysis with anti-HSP70 or anti-HSP90.
# [4] = target: HSP70 (endogenous, in lysates of human cells) (human) (UniProt P0DMV8); assay: anti-MUC1-N immunoprecipitation from HCT116/MUC1 lysates, immunoblot, scanning densitometry
# [5] = target: T1, purified recombinant human HSP70 (Homo sapiens, UniProt P0DMV8); assay: GST pull-down binding study with recombinant HSP70; details: GST fusion proteins on glutathione beads, 1 hour at 4° C., no c-Src
# T1 construct: purchased Stressgen Biotechnologies
# Method: as §3
# cytosolic MUC1-C levels = assay: Immunoblot of cytosolic fractions for MUC1-C; format: cell-based, Human; details: cytosolic fraction of HCT116/MUC1 cells; HRG 10 minutes
# Method: as §1
# as §2, with “t-test. […]” for “t-test.”
# [6] = system: binding of MUC1 and HSP70; assay: MUC1-HSP70 co-immunoprecipitation and immunoblot in cells; format: cell-based, Human; details: HRG 10 minutes
# Method: as §1
# Immunoprecipitation and immunoblotting. Equal amounts of protein from cell lysates were incubated with anti-MUC1-N (antibody DF3) (Kufe et al. (1984) Hybridoma 3:223-232), anti-Flag (Sigma-Aldrich, St. Louis, Mo.), anti-c-Src (Upstate Biotechnology, Lake Placid, N.Y.), anti-HSP90 (BD Biosciences PharMingen, San Diego, Calif.) or normal mouse IgG (Santa Cruz Biotechnology, Santa Cruz, Calif.) for 2 hours at 4° C. Immune complexes were prepared as described (Li et al. (1998) Mol. Cell. Biol. 18:7216-7224) and subjected to immunoblot analysis with anti-HSP70, anti-HSP90, anti-MUC1-N, anti-MUC1-C (Ab5; Neomarkers, Fremont, Calif.), anti-phospho-c-Src(Tyr416) (Cell Signaling Technology, Beverly, Mass.) or anti-c-Src. […] Reactivity was detected with horseradish peroxidase-conjugated secondary antibodies and chemiluminescence (PerkinElmer Life Sciences, Boston, Mass.). Intensity of the signals was determined by densitometric scanning. Statistical significance was determined by the Student's t-test.
# [7] = target: T2, purified recombinant human HSP90 (human, UniProt P08238 1-724, limits assumed); assay: GST pull-down with recombinant HSP90 after incubation with c-Src and ATP, anti-HSP90 immunoblot
# T2 construct: Bought (Stressgen Biotechnologies); also called recombinant HSP90
# T2 sequence (P08238 whole entry T147R/R177M): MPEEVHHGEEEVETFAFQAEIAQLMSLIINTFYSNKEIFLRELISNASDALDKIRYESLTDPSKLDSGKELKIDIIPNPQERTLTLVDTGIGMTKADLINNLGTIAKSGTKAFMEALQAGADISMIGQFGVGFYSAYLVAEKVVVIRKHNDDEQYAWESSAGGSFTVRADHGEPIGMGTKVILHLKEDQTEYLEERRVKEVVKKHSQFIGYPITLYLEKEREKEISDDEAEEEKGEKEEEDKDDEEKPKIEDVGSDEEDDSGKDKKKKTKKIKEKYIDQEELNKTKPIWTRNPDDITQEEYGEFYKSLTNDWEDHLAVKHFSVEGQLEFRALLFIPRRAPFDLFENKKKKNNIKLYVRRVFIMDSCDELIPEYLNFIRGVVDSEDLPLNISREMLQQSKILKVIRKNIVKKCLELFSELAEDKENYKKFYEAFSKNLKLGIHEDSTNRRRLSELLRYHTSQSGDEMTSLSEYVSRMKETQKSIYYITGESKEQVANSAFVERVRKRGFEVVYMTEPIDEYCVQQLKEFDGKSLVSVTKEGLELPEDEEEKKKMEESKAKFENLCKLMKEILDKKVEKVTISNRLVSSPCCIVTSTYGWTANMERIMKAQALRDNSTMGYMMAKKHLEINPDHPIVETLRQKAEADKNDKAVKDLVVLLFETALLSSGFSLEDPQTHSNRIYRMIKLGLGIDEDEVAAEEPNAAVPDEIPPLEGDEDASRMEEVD
# T1 sequence (P0DMV8 2-641 limits assumed): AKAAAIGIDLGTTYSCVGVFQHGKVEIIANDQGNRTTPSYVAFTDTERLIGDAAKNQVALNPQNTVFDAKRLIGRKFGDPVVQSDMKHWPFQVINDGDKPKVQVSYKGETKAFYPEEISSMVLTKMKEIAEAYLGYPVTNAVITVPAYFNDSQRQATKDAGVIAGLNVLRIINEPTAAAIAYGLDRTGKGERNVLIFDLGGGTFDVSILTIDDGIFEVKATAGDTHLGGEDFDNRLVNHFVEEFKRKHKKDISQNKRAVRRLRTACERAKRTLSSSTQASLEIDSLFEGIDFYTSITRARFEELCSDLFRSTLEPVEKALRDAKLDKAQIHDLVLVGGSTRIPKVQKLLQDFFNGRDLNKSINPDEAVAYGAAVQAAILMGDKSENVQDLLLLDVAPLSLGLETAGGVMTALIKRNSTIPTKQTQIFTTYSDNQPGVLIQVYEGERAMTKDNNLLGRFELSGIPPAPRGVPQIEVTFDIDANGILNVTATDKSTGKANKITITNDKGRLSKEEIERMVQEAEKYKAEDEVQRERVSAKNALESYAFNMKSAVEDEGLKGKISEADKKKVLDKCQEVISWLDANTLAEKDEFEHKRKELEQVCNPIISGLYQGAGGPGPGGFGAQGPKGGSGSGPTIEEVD
# MUC1 (human, full length, expressed in cells), sequence (P15941 24-1255): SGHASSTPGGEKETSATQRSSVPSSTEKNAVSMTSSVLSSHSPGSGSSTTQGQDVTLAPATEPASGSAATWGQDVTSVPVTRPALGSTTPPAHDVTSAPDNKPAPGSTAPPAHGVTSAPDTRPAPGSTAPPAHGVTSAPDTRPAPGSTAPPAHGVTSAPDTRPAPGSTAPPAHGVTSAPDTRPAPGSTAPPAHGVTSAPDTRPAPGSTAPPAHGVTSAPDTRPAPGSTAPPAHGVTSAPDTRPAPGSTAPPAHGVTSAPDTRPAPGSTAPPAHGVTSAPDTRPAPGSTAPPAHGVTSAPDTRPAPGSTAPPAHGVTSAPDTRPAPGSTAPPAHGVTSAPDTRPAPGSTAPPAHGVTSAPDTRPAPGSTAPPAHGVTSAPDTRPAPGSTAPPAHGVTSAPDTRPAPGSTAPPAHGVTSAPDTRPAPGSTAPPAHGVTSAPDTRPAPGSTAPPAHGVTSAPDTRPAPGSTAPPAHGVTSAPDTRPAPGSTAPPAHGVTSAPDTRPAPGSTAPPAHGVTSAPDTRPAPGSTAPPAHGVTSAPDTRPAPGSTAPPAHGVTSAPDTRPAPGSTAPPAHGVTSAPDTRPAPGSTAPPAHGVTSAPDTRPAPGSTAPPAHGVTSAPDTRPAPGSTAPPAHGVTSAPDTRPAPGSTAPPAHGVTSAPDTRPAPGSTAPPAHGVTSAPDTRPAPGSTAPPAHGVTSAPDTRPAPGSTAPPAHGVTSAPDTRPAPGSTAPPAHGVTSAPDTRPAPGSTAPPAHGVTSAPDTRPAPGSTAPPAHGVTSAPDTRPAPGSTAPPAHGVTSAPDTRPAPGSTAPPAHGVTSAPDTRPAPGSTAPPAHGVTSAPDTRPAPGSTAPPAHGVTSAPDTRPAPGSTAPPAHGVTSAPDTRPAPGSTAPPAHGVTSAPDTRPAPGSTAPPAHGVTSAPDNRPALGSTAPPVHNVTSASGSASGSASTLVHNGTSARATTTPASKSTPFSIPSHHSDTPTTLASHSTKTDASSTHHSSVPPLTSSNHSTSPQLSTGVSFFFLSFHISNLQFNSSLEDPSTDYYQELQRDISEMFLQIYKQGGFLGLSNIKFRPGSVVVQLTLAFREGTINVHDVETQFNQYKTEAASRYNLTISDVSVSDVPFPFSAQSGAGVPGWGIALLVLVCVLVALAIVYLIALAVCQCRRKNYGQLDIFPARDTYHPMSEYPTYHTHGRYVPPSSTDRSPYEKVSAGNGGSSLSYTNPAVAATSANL
molecule,measurement,setting,value
"CC(C)(C)n1nc(-c2ccc(Cl)cc2)c2c(N)ncnc21 [PP2, reference compound]",HRG-induced binding of MUC1 and HSP90 in presence of inhibitor,"[1]; HCT116/MUC1 cells, PP2 10 μM or GA 1 μM for 1 hour, then HRG, anti-MUC1-N precipitates",attenuated this response
same,HRG-induced c-Src activation,"c-Src; PP2 10 μM for 1 hour, then HRG 20 ng/ml 10 minutes",blocked HRG-induced c-Src activation
same,HRG-induced targeting of MUC1 to mitochondria in presence of inhibitor,"[2]; PP2 or GA for 1 hour, then HRG",attenuated
"MUC1-CD(1-45): GST fusion deletion mutant, amino acids 1-45 of the MUC1 cytoplasmic domain (CQCRRKNYGQLDIFPARDTYHPMSEYPTYHTHGRYVPPSSTDRSP; not fully specified; cysteine pairing not given here; also: fused to GST)",binding to HSP90 after incubation with c-Src and ATP,[3],no detectable binding of HSP90
"MUC1 (human, full length, expressed in cells) (from UniProt P15941 24-1255)",percent of the total HSP70 pool associated with MUC1,[4],0.6%
MUC1-CD(46-72): GST fusion of amino acids 46-72 (YEKVSAGNGGSSLSYTNPAVAATSANL; SEQ ID NO:2) of the human MUC1 CD (not fully specified; also: fused to GST),binding to HSP90 after incubation with c-Src and ATP,[3],no detectable binding of HSP90
same,binding to HSP70,[5],binding to HSP70 was detected
heregulin [HRG],binding of MUC1-CD to HSP90 on HRG stimulation,"[1]; HCT116/MUC1-CD (Flag-MUC1-CD) cells, HRG 10 minutes",stimulated binding of MUC1-CD to HSP90
same,binding of MUC1 and HSP90 on HRG stimulation,"[1]; HCT116/MUC1 cells, HRG 20 ng/ml 10 minutes",increase in binding of MUC1 and HSP90
same,binding of endogenous MUC1 and HSP90 on HRG stimulation,"[1]; MCF-7 breast cancer cells, HRG 10 minutes",increased binding of MUC1 and HSP90
same,binding of endogenous MUC1 and HSP90 on HRG stimulation,"[1]; ZR-75-1 breast cancer cells, HRG 10 minutes",increased binding of MUC1 and HSP90
same,binding of cytosolic MUC1-C and HSP90,"[1]; cytosolic fraction of HCT116/MUC1 cells, HRG 10 minutes, anti-HSP90 precipitates",increases binding of cytosolic MUC1-C and HSP90
same,binding of MUC1 and HSP90 at the cell membrane,"[1]; purified cell membranes of HCT116/MUC1 cells, HRG 10 minutes",stimulates binding of MUC1 and HSP90 at the cell membrane
same,cytosolic MUC1-C levels,cytosolic MUC1-C levels,increase in cytosolic MUC1-C levels
same,binding of MUC1-CD to HSP70 on HRG stimulation,[6]; HCT116/MUC1-CD (Flag-MUC1-CD) cells,little effect on binding of MUC1-CD to HSP70
same,binding of endogenous MUC1 and HSP70 on HRG stimulation,[6]; MCF-7 breast cancer cells,little if any effect on this interaction
same,binding of endogenous MUC1 and HSP70 on HRG stimulation,[6]; ZR-75-1 breast cancer cells,no apparent effect on the constitutive interaction between MUC1 and HSP70
same,c-Src activation as determined by autophosphorylation,c-Src; HRG 20 ng/ml 10 minutes,activated c-Src
same,localization of MUC1-C to mitochondria on HRG stimulation,[2]; HRG 10 minutes,"induces localization of MUC1-C, and not MUC1-N, to mitochondria"
MUC1-CD: GST fusion of the 72 amino acid MUC1 cytoplasmic domain (SEQ ID NO:1),binding to HSP90,"[3]; GST fusion protein on glutathione beads, 1 hour at 4° C., no c-Src",but not HSP90
same,binding to HSP90 after incubation with c-Src and ATP,[3],c-Src induced binding of MUC1-CD to HSP90
same,binding to HSP70,[5],binds to HSP70
"CQCRRKNYGQLDIFPARDTYHPMSEYPTYHTHGRYVPPSSTDRSP (other, not fully specified; cysteine pairing not given here; also: N-terminal GST fusion (pGEX-4T), sequence not given here, Deletion mutant of MUC1-CD on glutathione beads; it lacks Y-46; not shown: glutathione S-transferase (GST) tag encoded by the pGEX-4T vector) [GST-MUC1-CD(1-45)]",binding result,[7],no binding
